Measured values published in PubChem BioAssay (NCI).
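The compound was tested at five concentrations on cells cultured in 96-well plates, with a 48-hour exposure period. GI50 is the concentration that inhibits growth by half. TGI: concentration producing complete growth inhibition.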

Legend:
Experiment in all cases: growth of human tumour cells (NCI), 48 h
HCT-15 colon = tested on: HCT-15 colon
M14 melanoma = tested on: M14 melanoma
BT-549 breast = tested on: BT-549 breast
T-47D breast = tested on: T-47D breast
KM12 colon = tested on: KM12 colon
SNB-19 CNS = tested on: SNB-19 CNS
SNB-75 CNS = tested on: SNB-75 CNS
NCI-H522 lung = tested on: NCI-H522 lung
NCI-H460 lung = tested on: NCI-H460 lung
A549 NSCLC = tested on: A549 NSCLC
SF-268 CNS = tested on: SF-268 CNS
CCRF-CEM leukemia = tested on: CCRF-CEM leukemia
PC-3 prostate = tested on: PC-3 prostate
SK-MEL-2 melanoma = tested on: SK-MEL-2 melanoma
SK-OV-3 ovarian = tested on: SK-OV-3 ovarian
SK-MEL-5 melanoma = tested on: SK-MEL-5 melanoma
UO-31 renal = tested on: UO-31 renal
OVCAR-8 ovarian = tested on: OVCAR-8 ovarian
COLO 205 colon = tested on: COLO 205 colon
HL-60(TB) leukemia = tested on: HL-60(TB) leukemia
SF-295 CNS = tested on: SF-295 CNS
MOLT-4 leukemia = tested on: MOLT-4 leukemia
IGROV1 ovarian = tested on: IGROV1 ovarian
MCF7 breast = tested on: MCF7 breast
SK-MEL-28 melanoma = tested on: SK-MEL-28 melanoma
EKVX NSCLC = tested on: EKVX NSCLC
OVCAR-3 ovarian = tested on: OVCAR-3 ovarian
786-0 renal = tested on: 786-0 renal
SF-539 CNS = tested on: SF-539 CNS
U251 CNS = tested on: U251 CNS
SR leukemia = tested on: SR leukemia
MDA-MB-231 breast = tested on: MDA-MB-231 breast
ACHN renal = tested on: ACHN renal
TK-10 renal = tested on: TK-10 renal
LOX IMVI melanoma = tested on: LOX IMVI melanoma
MDA-MB-435 = tested on: MDA-MB-435
DU-145 prostate = tested on: DU-145 prostate
RXF 393 renal = tested on: RXF 393 renal
UACC-257 melanoma = tested on: UACC-257 melanoma
NCI/ADR-RES ovarian = tested on: NCI/ADR-RES ovarian
NCI-H23 lung = tested on: NCI-H23 lung
HS 578T breast = tested on: HS 578T breast
HOP-62 NSCLC = tested on: HOP-62 NSCLC
RPMI-8226 leukemia = tested on: RPMI-8226 leukemia
HOP-92 NSCLC = tested on: HOP-92 NSCLC
HCT-116 colon = tested on: HCT-116 colon
UACC-62 melanoma = tested on: UACC-62 melanoma
K-562 leukemia = tested on: K-562 leukemia
MALME-3M melanoma = tested on: MALME-3M melanoma
SW-620 colon = tested on: SW-620 colon
A498 renal = tested on: A498 renal
SN12C renal = tested on: SN12C renal
HCC-2998 colon = tested on: HCC-2998 colon
CAKI-1 renal = tested on: CAKI-1 renal
NCI-H226 lung = tested on: NCI-H226 lung
OVCAR-4 ovarian = tested on: OVCAR-4 ovarian
HT29 colon = tested on: HT29 colon
OVCAR-5 ovarian = tested on: OVCAR-5 ovarian

## C#Cc1nc(C2=C(C)C(O)/C(=N/O)C2)cs1 (stereo unspecified)
HCT-15 colon
  GI50: 49 µM
  TGI: > 100 µM
M14 melanoma
  GI50: > 100 µM
  TGI: > 100 µM
BT-549 breast
  GI50: 19.8 µM
  TGI: 75.5 µM
T-47D breast
  GI50: 66.8 µM
  TGI: > 100 µM
KM12 colon
  GI50: > 100 µM
  TGI: > 100 µM
SNB-19 CNS
  GI50: > 100 µM
  TGI: > 100 µM
SNB-75 CNS
  GI50: > 100 µM
  TGI: > 100 µM
NCI-H522 lung
  GI50: 14.1 µM
  TGI: 29.1 µM
NCI-H460 lung
  GI50: > 100 µM
  TGI: > 100 µM
A549 NSCLC
  GI50: 35.3 µM
  TGI: > 100 µM
SF-268 CNS
  GI50: 40.7 µM
  TGI: > 100 µM
CCRF-CEM leukemia
  GI50: 2.21 µM
  TGI: 5.3 µM
PC-3 prostate
  GI50: 39.1 µM
  TGI: > 100 µM
SK-MEL-2 melanoma
  GI50: > 100 µM
  TGI: > 100 µM
SK-OV-3 ovarian
  GI50: 18.8 µM
  TGI: 39.3 µM
SK-MEL-5 melanoma
  GI50: 54.6 µM
  TGI: > 100 µM
UO-31 renal
  GI50: 1.61 µM
  TGI: 2.98 µM
OVCAR-8 ovarian
  GI50: 55.5 µM
  TGI: > 100 µM
COLO 205 colon
  GI50: > 100 µM
  TGI: > 100 µM
HL-60(TB) leukemia
  GI50: 11.9 µM
  TGI: 29 µM
SF-295 CNS
  GI50: 12.5 µM
  TGI: 28.5 µM
MOLT-4 leukemia
  GI50: 15.1 µM
  TGI: 40.9 µM
IGROV1 ovarian
  GI50: 2.97 µM
  TGI: 12.1 µM
MCF7 breast
  GI50: 39 µM
  TGI: > 100 µM
SK-MEL-28 melanoma
  GI50: 87.8 µM
  TGI: > 100 µM
EKVX NSCLC
  GI50: > 100 µM
  TGI: > 100 µM
OVCAR-3 ovarian
  GI50: > 100 µM
  TGI: > 100 µM
786-0 renal
  GI50: 3.84 µM
  TGI: 14 µM
SF-539 CNS
  GI50: 11.5 µM
  TGI: 23.6 µM
U251 CNS
  GI50: 79.5 µM
  TGI: > 100 µM
SR leukemia
  GI50: 1.91 µM
  TGI: 5.31 µM
MDA-MB-231 breast
  GI50: 60.1 µM
  TGI: > 100 µM
ACHN renal
  GI50: 3.61 µM
  TGI: > 100 µM
TK-10 renal
  GI50: > 100 µM
  TGI: > 100 µM
LOX IMVI melanoma
  GI50: 1.52 µM
  TGI: 2.95 µM
MDA-MB-435
  GI50: > 100 µM
  TGI: > 100 µM
DU-145 prostate
  GI50: 49.2 µM
  TGI: > 100 µM
RXF 393 renal
  GI50: 19.4 µM
  TGI: 62.6 µM
UACC-257 melanoma
  GI50: 57.4 µM
  TGI: > 100 µM
NCI/ADR-RES ovarian
  GI50: 81.5 µM
  TGI: > 100 µM
NCI-H23 lung
  GI50: 7.4 µM
  TGI: > 100 µM
HS 578T breast
  GI50: > 100 µM
  TGI: > 100 µM
HOP-62 NSCLC
  GI50: 94.9 µM
  TGI: > 100 µM
RPMI-8226 leukemia
  GI50: 5.19 µM
  TGI: 21.8 µM
HOP-92 NSCLC
  GI50: 18.1 µM
  TGI: 34.1 µM
HCT-116 colon
  GI50: 42.2 µM
  TGI: > 100 µM
UACC-62 melanoma
  GI50: > 100 µM
  TGI: > 100 µM
K-562 leukemia
  GI50: 36.7 µM
  TGI: > 100 µM
MALME-3M melanoma
  GI50: 18.4 µM
  TGI: 49.6 µM
SW-620 colon
  GI50: 79.3 µM
  TGI: > 100 µM
A498 renal
  GI50: 24.1 µM
  TGI: 50.3 µM
SN12C renal
  GI50: 35 µM
  TGI: > 100 µM
HCC-2998 colon
  GI50: > 100 µM
  TGI: > 100 µM
CAKI-1 renal
  GI50: 48.3 µM
  TGI: > 100 µM
NCI-H226 lung
  GI50: > 100 µM
  TGI: > 100 µM
OVCAR-4 ovarian
  GI50: 57.2 µM
  TGI: > 100 µM
HT29 colon
  GI50: 25.7 µM
  TGI: 68.1 µM
OVCAR-5 ovarian
  GI50: 63.6 µM
  TGI: > 100 µM
